# Target: T1, wild-type AR (Homo sapiens, UniProt P10275)
# T1 sequence (P10275 1-920): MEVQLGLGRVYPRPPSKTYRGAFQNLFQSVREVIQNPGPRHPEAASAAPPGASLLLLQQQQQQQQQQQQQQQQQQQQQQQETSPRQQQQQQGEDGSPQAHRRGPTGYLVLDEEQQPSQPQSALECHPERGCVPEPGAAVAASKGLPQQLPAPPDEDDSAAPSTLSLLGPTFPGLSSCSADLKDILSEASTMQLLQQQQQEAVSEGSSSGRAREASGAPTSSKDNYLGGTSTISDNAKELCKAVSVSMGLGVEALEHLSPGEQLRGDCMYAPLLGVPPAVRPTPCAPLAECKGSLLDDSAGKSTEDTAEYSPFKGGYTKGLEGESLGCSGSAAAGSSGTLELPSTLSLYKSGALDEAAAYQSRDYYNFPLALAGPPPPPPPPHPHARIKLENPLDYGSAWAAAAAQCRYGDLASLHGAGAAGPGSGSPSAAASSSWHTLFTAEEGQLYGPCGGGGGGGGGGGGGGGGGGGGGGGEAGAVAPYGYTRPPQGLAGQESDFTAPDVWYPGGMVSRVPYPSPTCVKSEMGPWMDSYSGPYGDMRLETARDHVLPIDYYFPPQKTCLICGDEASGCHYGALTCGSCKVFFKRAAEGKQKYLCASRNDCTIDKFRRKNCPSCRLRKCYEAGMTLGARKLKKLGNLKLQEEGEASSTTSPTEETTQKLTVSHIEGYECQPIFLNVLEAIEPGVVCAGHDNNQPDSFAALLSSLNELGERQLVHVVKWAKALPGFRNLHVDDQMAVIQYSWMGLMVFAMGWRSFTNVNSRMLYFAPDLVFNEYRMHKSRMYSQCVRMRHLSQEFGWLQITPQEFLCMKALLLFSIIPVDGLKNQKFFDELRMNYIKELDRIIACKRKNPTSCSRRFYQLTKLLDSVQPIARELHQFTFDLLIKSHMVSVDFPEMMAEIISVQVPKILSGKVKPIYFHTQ
# Experiment: AR transcriptional activity (androgenic activity), MMTV-Luc reporter in PC-3 cells transfected with wild-type AR
# Format: cell-based
# Set-up: expressed in transfected cells; host or cells: PC-3
# Conditions: PC-3, wild-type AR plasmid + MMTV-Luc, compound at 1000 nM, 24 h
# Experimental: Cell Culture, Transfection, and Reporter Gene Assay. The human prostate cancer cell lines, LNCaP, PC-3, and DU145, and non-prostate cancer cell line COS-1 were maintained in RPMI or Dulbecco's modified Eagle's medium (DMEM) (Life Technologies) supplemented with 10% fetal bovine serum (FBS). Transfections and luciferase (Luc) assays were performed as previously described (Miyamoto, H., Yeh, S., Wilding, G. & Chang, C. (1998) Proc. Natl. Acad. Sci. USA 95, 7379-7384; Miyamoto, H., Rahman, M., Takatera, H., Kang, H.-Y., Yeh, S., Chang, H.-C., Nishimura, K., Fujimoto, N. & Chang, C. (2002) J. Biol. Chem. 277, 4609-4617). Briefly, cells seeded to reach a density of 50-60% confluence in 12 well tissue culture plates were transfected with 1.5 μg of DNA according to “SuperFect transfection” instructions (Qiagen). After 2-3 h incubation, cells were treated with medium supplemented with charcoal-stripped FBS containing either ethanol or ligands for 24 h. The cells were then harvested and whole cell extracts were used for Luc assay. The Luc activity was determined using a Dual-Luciferase Reporter Assay System (Promega) and luminometer.
# Anti-DHT Effect of DHEA Derivatives with Low Androgenic Activity on AR Transcription. Test compounds as antiandrogenic compounds, were characterized by analysis of their ability to induce AR transcriptional activity in the AR-negative PC-3 cell line. The Luc activity was determined in the cell extracts with transient transfection of wild-type AR plasmid and androgen response element-reporter plasmid (mouse mammary tumor virus (MMTV)-Luc). After transfection, the cells were treated with various compounds at 0.1-1,000 nM.
# To accomplish these studies, PC-3 cells were transfected with the wild-type AR expression plasmid pSG5-AR and MMTV-Luc. […] The Luc activity was measured relative to that of ethanol treatment (set as 1-fold). Values from the mean±SD of at least three determinations were used. PC-3 cells were transfected with the pSG5-AR and MMTV-Luc. […] Values from the mean±SD of at least three determinations were obtained.
smiles,measurement,value
"CC(=O)O[C@H]1C=C[C@@]2(C)C(=CC[C@@H]3[C@@H]2CC[C@@]2(C)[C@H]3CCC23OCCO3)C1 [ADEK, 3β-acetoxy-17,17-ethylenedioxyandrosta-1,5-diene]",induction on AR transcription as compared to mock treatment,marginal induction
